Results from ChEMBL document CHEMBL1153341, “Synthesis of new camptothecin analogs with improved antitumor activities” (Bioorg Med Chem Lett, 2009).
Active and inactive are the calls of the source. The calls are words filed in the database; no cut-off is given here.

How the values were obtained:
[1] = tested on: HCT-116; test: Antiproliferative activity against human HCT116 cells after 3 days; assay type: functional, cell-based; details: HCT-116, 72 h
[2] = tested on: NCI-H460; test: Antiproliferative activity against human NCI-H460 cells after 3 days; assay type: functional, cell-based; details: NCI-H460, 72 h
[3] = tested on: QG-56; test: Antiproliferative activity against human QG56 cells after 3 days; assay type: functional, cell-based; details: QG-56, 72 h
[4] = Toxicity to iv dosed mouse administered as single bolus dose for 3 weeks; assay type: organism-based; details: in vivo
[5] = tested on: PC-6; test: Antiproliferative activity against human PC6 cells carrying pRC after 6 days; assay type: functional, cell-based; details: PC-6, 144 h
[6] = tested on: PC-6; test: Antiproliferative activity against human PC6 expressing BCRP cells after 6 days; assay type: functional, cell-based; details: PC-6, 144 h
[7] = tested on: PC-6; test: Ratio of IC50 for human PC6 expressing BCRP cells to IC50 for human PC6 cells carrying pRC; assay type: functional
[8] = target: T1, DNA topoisomerase 1 (Homo sapiens, UniProt P11387); test: Inhibition of human topoisomerase 1
T1 sequence (P11387 whole entry): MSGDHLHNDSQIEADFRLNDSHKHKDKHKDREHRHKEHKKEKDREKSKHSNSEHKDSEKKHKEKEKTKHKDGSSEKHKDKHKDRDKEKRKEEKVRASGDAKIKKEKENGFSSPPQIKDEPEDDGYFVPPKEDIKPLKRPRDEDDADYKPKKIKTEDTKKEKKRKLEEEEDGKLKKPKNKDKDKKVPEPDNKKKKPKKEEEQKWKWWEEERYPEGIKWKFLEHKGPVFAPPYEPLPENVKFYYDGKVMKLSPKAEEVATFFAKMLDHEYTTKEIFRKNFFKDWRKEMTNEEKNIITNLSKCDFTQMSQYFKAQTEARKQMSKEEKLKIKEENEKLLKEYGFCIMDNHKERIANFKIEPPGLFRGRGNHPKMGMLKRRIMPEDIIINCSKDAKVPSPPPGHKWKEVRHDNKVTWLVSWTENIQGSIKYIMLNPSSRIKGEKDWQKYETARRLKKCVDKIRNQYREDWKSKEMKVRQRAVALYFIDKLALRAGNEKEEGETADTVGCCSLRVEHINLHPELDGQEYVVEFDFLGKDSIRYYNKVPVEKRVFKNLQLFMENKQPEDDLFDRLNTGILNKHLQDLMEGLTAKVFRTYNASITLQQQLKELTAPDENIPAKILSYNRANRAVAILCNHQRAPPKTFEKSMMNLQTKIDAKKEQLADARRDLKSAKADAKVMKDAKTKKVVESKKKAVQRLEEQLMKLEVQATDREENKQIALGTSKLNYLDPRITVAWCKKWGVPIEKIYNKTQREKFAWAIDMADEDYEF

[9] = tested on: HCT-116; test: Antitumor activity against BCRP-negative human HCT116 cells xenografted in mouse at 100 mg/kg, iv administered as single bolus dose for 3 weeks; assay type: functional, organism-based; parameters: dose 100 mg/kg
[10] = tested on: HCT-116; test: Antitumor activity against BCRP-negative human HCT116 cells xenografted in mouse at 40 mg/kg, iv administered as single bolus dose for 3 weeks; assay type: functional, organism-based; parameters: dose 40 mg/kg
[11] = tested on: NCI-H460; test: Antitumor activity against BCRP-positive human NCI-H460 cells xenografted in mouse at 40 mg/kg, iv administered as single bolus dose for 3 weeks; assay type: functional, organism-based; parameters: dose 40 mg/kg
[12] = tested on: NCI-H460; test: Antitumor activity against BCRP-positive human NCI-H460 cells xenografted in mouse at 100 mg/kg, iv administered as single bolus dose for 3 weeks; assay type: functional, organism-based; parameters: dose 100 mg/kg

## CC[C@@]1(O)C(=O)OCc2c1cc1n(c2=O)Cc2c-1nc1cccc3c1c2N(CCN1CCOCC1)C=N3
[1]
  IC50: 2.2 nM
[2]
  IC50: 7.2 nM
[3]
  IC50: 9.4 nM

## CC[C@@]1(O)C(=O)OCc2c1cc1n(c2=O)Cc2c-1nc1cccc3c1c2N(CCC(C)C)C(=S)N3
[1]
  IC50: 0.02 nM
[2]
  IC50: 0.08 nM
[3]
  IC50: 0.16 nM

## CCCCCN1C(C)=Nc2cccc3nc4c(c1c23)Cn1c-4cc2c(c1=O)COC(=O)[C@]2(O)CC
[1]
  IC50: 0.12 nM
[2]
  IC50: 0.66 nM
[3]
  IC50: 1.8 nM

## CCc1c2c(nc3ccc(OC(=O)N4CCC(N5CCCCC5)CC4)cc13)-c1cc3c(c(=O)n1C2)COC(=O)[C@]3(O)CC [IRINOTECAN]
[4]
  MTD at 504 h: 100 mg/kg

## CC[C@@]1(O)C(=O)OCc2c1cc1n(c2=O)Cc2c-1nc1cccc3c1c2N(CCc1ccccc1)C(=O)N3
[1]
  IC50: 0.25 nM
[2]
  IC50: 0.38 nM
[3]
  IC50: 1.2 nM

## CC[C@@]1(O)C(=O)OCc2c1cc1n(c2=O)Cc2c-1nc1cccc3c1c2N(CCN1CCOCC1)C(=O)N3
[1]
  IC50: 3.6 nM
[2]
  IC50: 26 nM
[3]
  IC50: 18 nM

## CCCCN1C(=O)Nc2cccc3nc4c(c1c23)Cn1c-4cc2c(c1=O)COC(=O)[C@]2(O)CC
[1]
  IC50: 0.4 nM
[2]
  IC50: 0.99 nM
[3]
  IC50: 1.2 nM

## CCCCCN1C(=O)Nc2cccc3nc4c(c1c23)Cn1c-4cc2c(c1=O)COC(=O)[C@]2(O)CC
[1]
  IC50: 0.85 nM
[2]
  IC50: 8.2 nM
[3]
  IC50: 8.5 nM

## CCc1c2c(nc3ccc(O)cc13)-c1cc3c(c(=O)n1C2)COC(=O)[C@]3(O)CC [7-ETHYL-10-HYDROXYCAMPTOTHECIN]
[1]
  IC50: 0.55 nM
[5]
  IC50: 0.43 nM
[6]
  IC50: 5.1 nM
[7]
  Ratio IC50: 12
[2]
  IC50: 3.3 nM
[3]
  IC50: 2.8 nM
[8]
  IC50: 5500 nM

## CC[C@@]1(O)C(=O)OCc2c1cc1n(c2=O)Cc2c-1nc1cccc3c1c2N(CCC(C)C)C=N3
[1]
  IC50: < 0.04 nM
[2]
  IC50: 0.11 nM
[3]
  IC50: 0.25 nM

## CC[C@@]1(O)C(=O)OCc2c1cc1n(c2=O)Cc2c-1nc1cccc3c1c2N(CCC(C)C)C(=O)N3
[1]
  IC50: 0.05 nM
[2]
  IC50: 0.72 nM
[3]
  IC50: 0.58 nM

## CC[C@@]1(O)C(=O)OCc2c1cc1n(c2=O)Cc2c-1nc1cccc3c1c2N(CCC(C)C)C(CO)=N3
[1]
  IC50: 0.44 nM
[2]
  IC50: 0.52 nM
[3]
  IC50: 1.8 nM

## CC[C@@]1(O)C(=O)OCc2c1cc1n(c2=O)Cc2c-1nc1cccc3c1c2N(CCc1ccccc1)C=N3
[1]
  IC50: 0.36 nM
[2]
  IC50: 0.91 nM
[3]
  IC50: 2.1 nM

## CCCCN1C=Nc2cccc3nc4c(c1c23)Cn1c-4cc2c(c1=O)COC(=O)[C@]2(O)CC
[1]
  IC50: 0.52 nM
[2]
  IC50: 1.6 nM
[3]
  IC50: 2.3 nM

## CCCCCN1C=Nc2cccc3nc4c(c1c23)Cn1c-4cc2c(c1=O)COC(=O)[C@]2(O)CC
[1]
  IC50: 0.36 nM
[4]
  MTD at 504 h: 40 mg/kg
[5]
  IC50: 0.18 nM
[6]
  IC50: 0.35 nM
[7]
  Ratio IC50: 2
[2]
  IC50: 2.3 nM
[9]
  Activity: Active
[3]
  IC50: 2.3 nM
[8]
  IC50: 2300 nM
[10]
  Activity: Active
[11]
  Activity: Active
[12]
  Activity: Active
